Assays:
[1] = tested on: human PBMC; experiment: Human PBMC IL-12 p40 secretion, ELISA; format: cell-based; conditions: for IL-12 p40 response of human PBMC (in words): Example 1, FIG. 1, 16 hours, RNA 50 μg/ml with and without DOTAP, R-848 2 μg/ml, LPS 1 μg/ml, Pam3Cys 5 μg/ml, poly IC 50 μg/ml; for effect of DOTAP on the amount of IL-12 p40 secreted: Example 4, FIG. 5, presence versus absence of DOTAP, 16 hour incubation
Procedure: Human peripheral blood mononuclear cells (PBMCs) were isolated from healthy donors, plated at 3×10^5 cells/well, stimulated in vitro with various test and control immunostimulatory agents for 16 hours, and then analyzed by enzyme-linked immunosorbent assay (ELISA) using matched antibody pairs from BD-Pharmingen for secreted cytokines IL-12 p40 and TNF-α, performed according to the manufacturer's protocol. Also included were certain negative controls, including medium alone and DOTAP (10 μg/200 μl culture well; “Liposomes”) alone. The control immunostimulatory agents included the imidazoquinolone R-848 (2 μg/ml), lipopolysaccharide (LPS; 1 μg/ml), Pam3Cys (5 μg/ml), poly IC (50 μg/ml), and CpG DNA (50 μg/ml). These are reported ligands for TLR7, TLR4, TLR2, TLR3, and TLR9, respectively. Test immunostimulatory agents included the following RNA molecules, each at 50 μg/ml, with and without DOTAP (10 μg total “with Liposomes” and “without Liposomes”, respectively): GUGUUUAC alone; GUAGGCAC alone; GUGUUUAC in combination with GUAGGCAC; GUAGGA; GAAGGCAC; CUAGGCAC; CUCGGCAC; and CCCCCCCC. These RNA oligonucleotides each contained a phosphorothioate linkage between the penultimate and 3′ terminal nucleoside.
The experiments described in the preceding example were repeated with varied concentrations of RNA oligonucleotides in order to assess the dose-response behavior of human PBMCs to G,U-containing RNA oligonucleotides of the invention. A total of 10, 3 or 1 μg RNA was added to 10 μg DOTAP and then added to the 200 μl culture wells. After 16 hours IL-12 p40 and TNF-α ELISAs were performed as described in Example 1. […]
RNA oligomers GUGUGUGU, GUGUGUG, GUGUGU, GUGUG, GUGU, GUG, and GU, with and without DOTAP, were added over a range of concentrations to overnight cultures of human PBMC. Culture supernatants were harvested, and human TNF-α, IL-12 p40, and IFN-α were measured by ELISA using matched antibody pairs from BD-Pharmingen according to the manufacturer's protocol. […]

[2] = tested on: wild type murine macrophages; experiment: Wild type murine macrophages in the presence of IFN-γ, IL-12 p40 ELISA; format: cell-based, mouse; conditions: FIG. 6 Panel A, 12 hours, RNA with DOTAP
Procedure: The following murine cells were isolated and incubated with various RNAs and other known TLR ligands in order to assess species-, cell type-, and signaling pathway-specificity: wild type macrophages in the presence of IFN-γ; MyD88-deficient macrophages in the presence of IFN-γ; J774 (mouse macrophage cell line); and RAW 264.7 (mouse macrophage cell line, e.g., ATCC TIB-71). Murine bone macrophages were generated from wild type or MyD88-deficient C57BL/6 mice by culturing bone marrow cells with 50 ng/ml M-CSF for 5 days. Cells were seeded at 25,000 cells/well and treated with 20 ng/ml IFN-γ for 16 hours. The murine macrophage cell lines RAW and J774 were seeded at 10,000 cells/well.
The following test and control agents were examined: R-848 (2 μg/ml), ODN 1668 (CpG DNA; 5′-[…]-3′; SEQ ID NO:7); LPS (1 μg/ml); poly IC (50 μg/ml); Pam3Cys (5 μg/ml); Ionomycin/TPA; the following RNA molecules, each with (“+Lipo”) and without DOTAP (10 μg/200 μl culture well): GUGUUUAC alone (RNA1); GUAGGCAC alone (RNA2); GUGUUUAC in combination with GUAGGCAC (RNA1/2); […] (RNA6; SEQ ID NO:8); […] (RNA9; SEQ ID NO:9); and the following DNA molecules, corresponding to RNA1, RNA2, and RNA1/2: GTGTTTAC alone (DNA1); GTAGGCAC alone (DNA2); and GTGTTTAC in combination with GTAGGCAC (DNA1/2). These RNA and DNA oligonucleotides each contained a phosphorothioate linkage between the penultimate and 3′ terminal nucleoside. RNA6 and RNA9 each contained in addition a phosphorothioate linkage between the penultimate and 5′ terminal nucleoside. RNA6 corresponds to a ribosomal RNA stem loop derived from Listeria monocytogenes. RNA9 corresponds to a stem loop derived from human immunodeficiency virus (HIV, an RNA retrovirus). The cells were cultured for 12 hours and supernatants were harvested. Murine IL-12 p40, IL-6, and TNF-α were measured by ELISA using matched antibody pairs from BD-Pharmingen according to the manufacturer's protocol.

Molecule: poly IC [reference compound]
- IL-12 p40 response of human PBMC (in words) [1]: responsive
- effect of DOTAP on the amount of IL-12 p40 secreted [1]: reduced immunostimultory effect
- IL-12 p40 secretion by wild type murine macrophages [2]: significant amounts

Molecule: CCCCCCCCCCCCCCCC(=O)N[C@@H](CSC[C@@H](COC(=O)CCCCCCCCCCCCCCC)OC(=O)CCCCCCCCCCCCCCC)C(=O)O [Pam3Cys, reference compound]
- IL-12 p40 response of human PBMC (in words) [1]: responsive
- effect of DOTAP on the amount of IL-12 p40 secreted [1]: about the same immunostimultory effect
- IL-12 p40 secretion by wild type murine macrophages [2]: significant amounts

Molecule: lipopolysaccharide [LPS, reference compound]
- IL-12 p40 response of human PBMC (in words) [1]: responsive
- effect of DOTAP on the amount of IL-12 p40 secreted [1]: reduced immunostimultory effect
- IL-12 p40 secretion by wild type murine macrophages [2]: significant amounts

Source: US9428536B2, “Immunostimulatory G, U-containing oligoribonucleotides” (Zoetis Belgium SA, priority 2002, dated 2016)
